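Grown in 96-well plates, cells were treated for 48 hours with each compound at five concentrations. Insufficient inhibition: endpoint recorded as highest concentration tested. GI50 is the concentration that inhibits growth by half.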 Active and inactive are the calls of the source. Rule as the data show it: active = GI50 up to about 1.1 µM and inactive = higher.
Assays:
Experiment in all cases: NCI anticancer screen, dose series, 48 h
A549 = tested on: A549
CAKI-1 = tested on: CAKI-1
COLO 205 = tested on: COLO 205
EKVX = tested on: EKVX
HL-60 = tested on: HL-60
HT-29 = tested on: HT-29
LOX IMVI = tested on: LOX IMVI
MOLT-4 = tested on: MOLT-4
Malme-3M = tested on: Malme-3M
NCI-H23 = tested on: NCI-H23
OVCAR-4 = tested on: OVCAR-4
RXF 393 = tested on: RXF 393
SF-295 = tested on: SF-295
SK-MEL-28 = tested on: SK-MEL-28
SNB-19 = tested on: SNB-19
A498 = tested on: A498
HCC 2998 = tested on: HCC 2998
NCI-H226 = tested on: NCI-H226
SR = tested on: SR

| SMILES | GI50 (A549) | GI50 (CAKI-1) | GI50 (COLO 205) | GI50 (EKVX) | GI50 (HL-60) | GI50 (HT-29) | GI50 (LOX IMVI) | GI50 (MOLT-4) | GI50 (Malme-3M) | GI50 (NCI-H23) | GI50 (OVCAR-4) | GI50 (RXF 393) | GI50 (SF-295) | GI50 (SK-MEL-28) | GI50 (SNB-19) | GI50 (A498) | GI50 (HCC 2998) | GI50 (NCI-H226) | GI50 (SR) |
| --- | --- | --- | --- | --- | --- | --- | --- | --- | --- | --- | --- | --- | --- | --- | --- | --- | --- | --- | --- |
| COc1ccc(C2C(C(=O)O)=C(COC(C)=O)Oc3cc4c(cc32)OCO4)c(OC)c1 (stereo not drawn) | > 100 µM (inactive) | > 100 µM (inactive) | > 100 µM (inactive) | > 100 µM (inactive) | > 100 µM (inactive) | > 100 µM (inactive) | > 100 µM (inactive) | > 100 µM (inactive) | > 100 µM (inactive) | > 100 µM (inactive) | > 100 µM (inactive) | > 100 µM (inactive) | > 100 µM (inactive) | > 100 µM (inactive) | > 100 µM (inactive) |  |  |  |  |
| CC(C)(C)OC(=O)NC1CCCC1=O (stereo not drawn) | > 100 µM (inactive) | > 100 µM (inactive) |  | > 100 µM (inactive) |  | > 100 µM (inactive) | > 100 µM (inactive) | > 100 µM (inactive) | > 100 µM (inactive) | > 100 µM (inactive) | > 100 µM (inactive) | > 100 µM (inactive) | > 100 µM (inactive) | > 100 µM (inactive) | > 100 µM (inactive) | 8.3 µM (inactive) | > 100 µM (inactive) | > 100 µM (inactive) | > 100 µM (inactive) |
| O=C(O)[C@H](NS(=O)(=O)c1ccc([N+](=O)[O-])cc1)c1ccccc1 | > 100 µM (inactive) | > 100 µM (inactive) | > 100 µM (inactive) | > 100 µM (inactive) |  | > 100 µM (inactive) | > 100 µM (inactive) | > 100 µM (inactive) | > 100 µM (inactive) | > 100 µM (inactive) | > 100 µM (inactive) | > 100 µM (inactive) | > 100 µM (inactive) | > 100 µM (inactive) | > 100 µM (inactive) |  | > 100 µM (inactive) | > 100 µM (inactive) |  |
| Brc1ccc2c(c1)-c1nc3nc4c(cc3cc1CC2)CCc1ccc(Br)cc1-4 | > 100 µM (inactive) | > 100 µM (inactive) | > 100 µM (inactive) | > 100 µM (inactive) |  |  | > 100 µM (inactive) | > 100 µM (inactive) | > 100 µM (inactive) | > 100 µM (inactive) | 0.47 µM (active) | > 100 µM (inactive) | > 100 µM (inactive) | > 100 µM (inactive) | > 100 µM (inactive) | > 100 µM (inactive) | > 100 µM (inactive) | > 100 µM (inactive) |  |
| C/C(=N/NS(=O)(=O)c1ccc([N+](=O)[O-])cc1)c1cccc[n+]1[O-] | > 100 µM (inactive) | > 100 µM (inactive) |  | > 100 µM (inactive) | > 100 µM (inactive) | > 100 µM (inactive) |  | > 100 µM (inactive) |  | > 100 µM (inactive) | > 100 µM (inactive) |  | > 100 µM (inactive) | > 100 µM (inactive) | > 100 µM (inactive) | > 100 µM (inactive) | > 100 µM (inactive) |  | > 100 µM (inactive) |
| COc1cccc2c1c1ccc3c(c1n2C)C(=O)C=CC3=O | > 100 µM (inactive) | 3.15 µM (inactive) | 6.15 µM (inactive) |  | 1.51 µM (inactive) | 2.43 µM (inactive) | 16.9 µM (inactive) | 2.64 µM (inactive) | 13.9 µM (inactive) | 16.1 µM (inactive) | 17.5 µM (inactive) |  | > 100 µM (inactive) | 19 µM (inactive) | > 100 µM (inactive) | > 100 µM (inactive) | 48.4 µM (inactive) | 64.3 µM (inactive) | 2.4 µM (inactive) |
| COc1cc(C(Cc2ccccc2)NC(C)=O)oc(=O)c1 (stereo not drawn) | > 100 µM (inactive) | > 100 µM (inactive) | > 100 µM (inactive) | > 100 µM (inactive) | > 100 µM (inactive) | > 100 µM (inactive) | > 100 µM (inactive) |  | > 100 µM (inactive) | > 100 µM (inactive) | > 100 µM (inactive) | > 100 µM (inactive) | > 100 µM (inactive) | > 100 µM (inactive) | > 100 µM (inactive) | > 100 µM (inactive) | > 100 µM (inactive) | > 100 µM (inactive) |  |
| CCOc1cc2ccc3c4cc(OC)c(OC)cc4cnc3c2cc1OCC | > 100 µM (inactive) | > 100 µM (inactive) | > 100 µM (inactive) | > 100 µM (inactive) |  | > 100 µM (inactive) |  | > 100 µM (inactive) | > 100 µM (inactive) | > 100 µM (inactive) | > 100 µM (inactive) |  | > 100 µM (inactive) | > 100 µM (inactive) | > 100 µM (inactive) | > 100 µM (inactive) | > 100 µM (inactive) |  |  |
| COC(=O)C(=O)C(C(=O)C(=O)Nc1ccccc1C(N)=O)c1nc2ccc(C(=O)c3ccccc3)cc2nc1O (stereo not drawn) | > 100 µM (inactive) | 25.9 µM (inactive) | > 100 µM (inactive) | > 100 µM (inactive) |  | > 100 µM (inactive) |  | 92.5 µM (inactive) | > 100 µM (inactive) | > 100 µM (inactive) | > 100 µM (inactive) | 80.2 µM (inactive) | > 100 µM (inactive) | > 100 µM (inactive) | > 100 µM (inactive) | 45 µM (inactive) | > 100 µM (inactive) | 92.7 µM (inactive) | 68.1 µM (inactive) |
| CNC1=C(C)C(=O)C(C)=C(C(C)(C)CC(=O)n2cc(F)c(=O)[nH]c2=O)C1=O | 5.09 µM (inactive) | 22.8 µM (inactive) | 23.6 µM (inactive) | 16.1 µM (inactive) | 17.8 µM (inactive) | 12.5 µM (inactive) | 71 µM (inactive) | 26.7 µM (inactive) | > 43.1 µM (inactive) | 7.5 µM (inactive) |  | > 100 µM (inactive) | > 67.9 µM (inactive) | > 30.9 µM (inactive) | > 65.8 µM (inactive) | > 23.9 µM (inactive) | 1.16 µM (inactive) | 43.4 µM (inactive) |  |
| O=C1C(c2ccc([N+](=O)[O-])cc2)=[N+]([O-])c2ccc([N+](=O)[O-])cc21 | 37.8 µM (inactive) |  | 35.3 µM (inactive) | > 100 µM (inactive) | 19.5 µM (inactive) | 73.1 µM (inactive) | 46.5 µM (inactive) | 27 µM (inactive) |  | 33.8 µM (inactive) | 28.1 µM (inactive) | 56.4 µM (inactive) | 56.1 µM (inactive) | > 100 µM (inactive) | 98.6 µM (inactive) |  |  | 37.2 µM (inactive) | 35.1 µM (inactive) |
| C/N=C(\N)c1ccc(NC(=N)c2ccc(C(=N)Nc3ccc(/C(N)=N/C)cc3)cc2)cc1 | > 100 µM (inactive) | > 100 µM (inactive) | > 100 µM (inactive) |  | > 100 µM (inactive) | > 100 µM (inactive) | > 100 µM (inactive) | > 100 µM (inactive) | > 100 µM (inactive) |  | > 100 µM (inactive) | > 100 µM (inactive) | > 100 µM (inactive) | > 100 µM (inactive) | > 100 µM (inactive) |  |  | > 100 µM (inactive) |  |
| CC(C)N(C(=O)C12C3C4C5C3C1(C(=O)N(C(C)C)C(C)C)C5(C#N)C42)C(C)C (stereo not drawn) | 86.3 µM (inactive) | > 100 µM (inactive) | 40.5 µM (inactive) | > 100 µM (inactive) | 21.1 µM (inactive) | > 100 µM (inactive) | 20.8 µM (inactive) | > 100 µM (inactive) | > 100 µM (inactive) | > 100 µM (inactive) | > 100 µM (inactive) |  | > 100 µM (inactive) | > 100 µM (inactive) | > 100 µM (inactive) | > 100 µM (inactive) | > 100 µM (inactive) | > 100 µM (inactive) | 17.9 µM (inactive) |
| O=C1COc2cc3c(cc2N1)SCC(=O)N3 | > 100 µM (inactive) | > 100 µM (inactive) | > 100 µM (inactive) | 6.41 µM (inactive) | > 100 µM (inactive) | > 100 µM (inactive) |  | > 100 µM (inactive) | > 100 µM (inactive) | > 100 µM (inactive) | > 100 µM (inactive) |  | > 100 µM (inactive) | > 100 µM (inactive) | > 100 µM (inactive) |  | > 100 µM (inactive) | > 100 µM (inactive) | > 100 µM (inactive) |
| COC(=O)/C=C/C(=O)C1C(C(=O)OC)C2(C(=O)OC)CCC1(C(=O)OC)N2 (stereo not drawn) | > 100 µM (inactive) | > 100 µM (inactive) | > 100 µM (inactive) | > 100 µM (inactive) | > 100 µM (inactive) | > 100 µM (inactive) |  | > 100 µM (inactive) | > 100 µM (inactive) | > 100 µM (inactive) | > 100 µM (inactive) | > 100 µM (inactive) | > 100 µM (inactive) | > 100 µM (inactive) | > 100 µM (inactive) |  | > 100 µM (inactive) |  | > 100 µM (inactive) |
| NCC1(N2CCOCC2)C2CCCC21CO (stereo not drawn) | > 100 µM (inactive) | > 100 µM (inactive) | > 100 µM (inactive) |  | > 100 µM (inactive) | > 100 µM (inactive) |  | > 100 µM (inactive) | > 100 µM (inactive) | > 100 µM (inactive) | > 100 µM (inactive) | > 100 µM (inactive) | > 100 µM (inactive) | > 100 µM (inactive) | > 100 µM (inactive) |  | > 100 µM (inactive) | > 100 µM (inactive) | > 100 µM (inactive) |
| C=C1CCC2C(C)(CO)C(O)CCC2(C)C1CC(O)C1=CCOC1=O (stereo not drawn) | 55.2 µM (inactive) | 78 µM (inactive) | 38.5 µM (inactive) | 96.2 µM (inactive) | 26.9 µM (inactive) | 35.7 µM (inactive) | 33.5 µM (inactive) | > 100 µM (inactive) | > 100 µM (inactive) | > 100 µM (inactive) | 61.1 µM (inactive) |  | 46.2 µM (inactive) | > 100 µM (inactive) | > 100 µM (inactive) | > 100 µM (inactive) | 17.7 µM (inactive) | 45.2 µM (inactive) | 18 µM (inactive) |
